Measurements published in patent US6794386B2, “β-amino acid compounds as integrin antagonists” (Bayer Aktiengesellschaft, priority 2000, dated 2004).

target: T1, VLA-4 (Homo sapiens, UniProt P05556+P13612); assay: Adhesion of Jurkat cells to immobilized VCAM-1 (domains 1-3); assay type: cell-based; details: adhesion of CFSE-labeled Jurkat cells to recombinant human VCAM-1 (domains 1-3) coated plates; compounds as yielded by solid phase synthesis, purity about 40-90%; read-out: IC50
T1 construct: host or cells: Jurkat clone E6-1
Method in brief: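 CFSE-labelled Jurkat E6-1 cells in Tris buffer pH 7.4 with 2 mM MnCl2 were added to wells coated with insect-cell-expressed human VCAM-1 domains 1-3 (0.5 μg/ml coating solution); labelled cells were incubated for 30 min at 37 °C with the VLA-4 inhibitor.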

T1 sequence (P13612 34-1032): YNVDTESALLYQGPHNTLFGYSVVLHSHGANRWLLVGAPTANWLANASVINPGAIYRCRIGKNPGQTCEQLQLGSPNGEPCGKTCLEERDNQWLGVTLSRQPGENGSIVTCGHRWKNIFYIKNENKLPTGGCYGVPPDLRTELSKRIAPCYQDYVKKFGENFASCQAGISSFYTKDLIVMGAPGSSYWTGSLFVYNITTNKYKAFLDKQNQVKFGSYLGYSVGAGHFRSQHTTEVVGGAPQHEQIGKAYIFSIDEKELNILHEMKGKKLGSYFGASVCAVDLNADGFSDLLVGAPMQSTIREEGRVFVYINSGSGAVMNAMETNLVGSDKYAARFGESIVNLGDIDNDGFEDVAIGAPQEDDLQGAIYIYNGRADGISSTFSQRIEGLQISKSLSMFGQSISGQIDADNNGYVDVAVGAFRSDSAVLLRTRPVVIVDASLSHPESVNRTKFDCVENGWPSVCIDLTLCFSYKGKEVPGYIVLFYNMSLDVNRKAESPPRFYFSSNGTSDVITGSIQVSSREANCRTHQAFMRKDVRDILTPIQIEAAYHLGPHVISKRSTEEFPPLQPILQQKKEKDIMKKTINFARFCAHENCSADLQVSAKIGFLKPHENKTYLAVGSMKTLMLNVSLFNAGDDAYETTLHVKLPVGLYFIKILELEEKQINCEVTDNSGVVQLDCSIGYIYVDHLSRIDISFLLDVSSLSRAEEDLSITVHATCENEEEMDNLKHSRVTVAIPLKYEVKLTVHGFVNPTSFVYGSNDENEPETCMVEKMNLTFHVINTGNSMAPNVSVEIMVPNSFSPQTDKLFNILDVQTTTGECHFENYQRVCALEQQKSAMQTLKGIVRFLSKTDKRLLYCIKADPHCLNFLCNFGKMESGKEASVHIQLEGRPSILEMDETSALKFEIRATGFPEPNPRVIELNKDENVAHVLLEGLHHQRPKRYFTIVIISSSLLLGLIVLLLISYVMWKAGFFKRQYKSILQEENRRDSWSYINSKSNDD
T1 sequence (P05556 21-798): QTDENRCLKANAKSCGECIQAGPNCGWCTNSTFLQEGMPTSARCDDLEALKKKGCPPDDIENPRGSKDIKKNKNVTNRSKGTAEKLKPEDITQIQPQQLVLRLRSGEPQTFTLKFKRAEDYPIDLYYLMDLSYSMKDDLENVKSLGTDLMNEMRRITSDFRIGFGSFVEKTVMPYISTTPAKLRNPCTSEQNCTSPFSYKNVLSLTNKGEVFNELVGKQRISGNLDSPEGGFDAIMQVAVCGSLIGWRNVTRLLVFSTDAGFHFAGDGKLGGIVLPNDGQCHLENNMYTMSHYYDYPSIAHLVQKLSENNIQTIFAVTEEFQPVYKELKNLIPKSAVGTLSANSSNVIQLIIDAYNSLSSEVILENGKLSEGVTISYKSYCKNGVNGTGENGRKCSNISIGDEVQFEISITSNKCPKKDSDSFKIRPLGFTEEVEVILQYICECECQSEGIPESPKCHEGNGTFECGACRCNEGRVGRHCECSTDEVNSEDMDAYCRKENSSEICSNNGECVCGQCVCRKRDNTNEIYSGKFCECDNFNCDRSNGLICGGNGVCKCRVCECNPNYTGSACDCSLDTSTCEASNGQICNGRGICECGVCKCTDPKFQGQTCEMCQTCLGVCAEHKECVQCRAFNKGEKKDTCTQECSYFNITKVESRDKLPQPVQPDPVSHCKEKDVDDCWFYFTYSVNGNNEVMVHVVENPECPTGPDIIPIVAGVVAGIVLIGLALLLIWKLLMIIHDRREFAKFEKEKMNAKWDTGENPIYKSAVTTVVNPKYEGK

Row | Structure (SMILES) | IC50
1 | COc1ccccc1C(=O)N1CCCC(C(=O)N[C@@H](Cc2ccc(NC(=O)N3CCOCC3)cc2)C(=O)O)C1 (stereo partly drawn) [Example 4.22] | ≤ 500 nM
2 | COc1ccc(CC(=O)N2CCCC(C(=O)N[C@H](Cc3ccc(NC(=O)N4CCc5ccccc5C4)cc3)C(=O)O)C2)cc1 (stereo partly drawn) [Example 4.23] | 500 to 2000 nM
3 | COc1ccccc1C(=O)N1CCCC(C(=O)N[C@@H](Cc2ccc(NC(=O)NC3CCN(Cc4ccccc4)CC3)cc2)C(=O)O)C1 (stereo partly drawn) [Example 4.24] | 500 to 2000 nM
4 | O=C(N[C@@H](Cc1ccc(NC(=O)N2CCOCC2)cc1)C(=O)O)C1CCCN(C(=O)Cc2cccs2)C1 (stereo partly drawn) [Example 4.25] | ≤ 500 nM
5 | O=C(Nc1ccc(C[C@H](NC(=O)C2CCCN(C(=O)Cc3ccccc3)C2)C(=O)O)cc1)NC1CCN(Cc2ccccc2)CC1 (stereo partly drawn) [Example 4.26] | 2000 to 10000 nM
6 | COc1ccccc1C(=O)N1CCCC(C(=O)N[C@@H](Cc2ccc(NC(=O)N3CCc4ccccc4C3)cc2)C(=O)O)C1 (stereo partly drawn) [Example 4.27] | ≤ 500 nM
7 | CN1CCN(C(=O)Nc2ccc(C[C@H](NC(=O)C3CCCN(S(=O)(=O)Cc4ccccc4)C3)C(=O)O)cc2)CC1 (stereo partly drawn) [Example 4.28] | 500 to 2000 nM
8 | O=C(N[C@@H](Cc1ccc(NC(=O)N2CCOCC2)cc1)C(=O)O)C1CCCN(S(=O)(=O)c2cc(Cl)cc(Cl)c2)C1 (stereo partly drawn) [Example 4.29] | ≤ 500 nM
9 | O=C(N[C@@H](Cc1ccc(NC(=O)N2CCOCC2)cc1)C(=O)O)C1CCCN(S(=O)(=O)c2ccc3ccccc3c2)C1 (stereo partly drawn) [Example 4.30] | ≤ 500 nM
10 | CS(=O)(=O)N1CCCC(C(=O)N[C@@H](Cc2ccc(NC(=O)N3CCN(C(c4ccccc4)c4ccccc4)CC3)cc2)C(=O)O)C1 (stereo partly drawn) [Example 4.31] | 500 to 2000 nM
11 | Cc1ccc(S(=O)(=O)N2CCCC(C(=O)N[C@@H](Cc3ccc(NC(=O)NC4CCN(Cc5ccccc5)CC4)cc3)C(=O)O)C2)cc1 (stereo partly drawn) [Example 4.32] | 2000 to 10000 nM
12 | O=C(N[C@@H](Cc1ccc(NC(=O)N2CCc3ccccc3C2)cc1)C(=O)O)C1CCCN(S(=O)(=O)c2cccs2)C1 (stereo partly drawn) [Example 4.33] | ≤ 500 nM
13 | COc1ccc(S(=O)(=O)N2CCCC(C(=O)N[C@@H](Cc3ccc(NC(=O)N4CCOCC4)cc3)C(=O)O)C2)cc1OC (stereo partly drawn) [Example 4.34] | ≤ 500 nM
14 | Cc1ccc(S(=O)(=O)N2CCCC(C(=O)N[C@@H](Cc3ccc(NC(=O)N4CCN(C(c5ccccc5)c5ccccc5)CC4)cc3)C(=O)O)C2)cc1 (stereo partly drawn) [Example 4.35] | 500 to 2000 nM
15 | O=C(NCC(c1ccccc1)c1ccccc1)Nc1ccc(C[C@H](NC(=O)C2CCCN(S(=O)(=O)c3cccs3)C2)C(=O)O)cc1 (stereo partly drawn) [Example 4.36] | 2000 to 10000 nM
16 | CS(=O)(=O)N1CCCC(C(=O)N[C@@H](Cc2ccc(NC(=O)N3CCN(c4ccccc4)CC3)cc2)C(=O)O)C1 (stereo partly drawn) [Example 4.37] | 500 to 2000 nM
17 | COc1ccc(Cl)cc1S(=O)(=O)N1CCCC(C(=O)N[C@@H](Cc2ccc(NC(=O)N3CCN(c4ccccc4)CC3)cc2)C(=O)O)C1 (stereo partly drawn) [Example 4.38] | 500 to 2000 nM
18 | O=C(N[C@@H](Cc1ccc(NC(=O)N2CCc3ccccc3C2)cc1)C(=O)O)C1CCCN(S(=O)(=O)c2ccc3ccccc3c2)C1 (stereo partly drawn) [Example 4.39] | 2000 to 10000 nM
19 | COc1ccc(S(=O)(=O)N2CCCC(C(=O)N[C@@H](Cc3ccc(NC(=O)NC4CCN(Cc5ccccc5)CC4)cc3)C(=O)O)C2)cc1OC (stereo partly drawn) [Example 4.40] | 2000 to 10000 nM
20 | O=C(N[C@@H](Cc1ccc(NC(=O)N2CCCCC2)cc1)C(=O)O)C1CCCN(S(=O)(=O)c2ccc3ccccc3c2)C1 (stereo partly drawn) [Example 4.41] | ≤ 500 nM

Row | Structure (SMILES) | IC50
21 | O=C(N[C@@H](Cc1ccc(NC(=O)N2CCOCC2)cc1)C(=O)O)C1CCCN(S(=O)(=O)c2cccs2)C1 (stereo partly drawn) [Example 4.42] | ≤ 500 nM
22 | Cc1ccc(S(=O)(=O)N2CCCC(C(=O)N[C@@H](Cc3ccc(NC(=O)N4CCOCC4)cc3)C(=O)O)C2)cc1 (stereo partly drawn) [Example 4.43] | ≤ 500 nM
23 | O=C(N[C@@H](Cc1ccc(NC(=O)N2CCOCC2)cc1)C(=O)O)C1CCCN(S(=O)(=O)Cc2ccccc2)C1 (stereo partly drawn) [Example 4.44] | 500 to 2000 nM
24 | COc1ccc(S(=O)(=O)N2CCCC(C(=O)N[C@@H](Cc3ccc(NC(=O)N4CCN(C(c5ccccc5)c5ccccc5)CC4)cc3)C(=O)O)C2)cc1OC (stereo partly drawn) [Example 4.45] | 500 to 2000 nM
25 | Cc1ccc(S(=O)(=O)N2CCCC(C(=O)N[C@@H](Cc3ccc(NC(=O)N4CCN(c5ccccc5)CC4)cc3)C(=O)O)C2)cc1 (stereo partly drawn) [Example 4.46] | ≤ 500 nM
26 | O=C(N[C@@H](Cc1ccc(NC(=O)N2CCN(c3ccccc3)CC2)cc1)C(=O)O)C1CCCN(S(=O)(=O)Cc2ccccc2)C1 (stereo partly drawn) [Example 4.47] | 500 to 2000 nM
27 | COc1ccc(S(=O)(=O)N2CCCC(C(=O)NC(Cc3ccc(NC(=O)N4CCc5ccccc5C4)cc3)C(=O)O)C2)cc1OC (stereo not drawn) [Example 4.48] | ≤ 500 nM
28 | O=C(N[C@@H](Cc1ccc(NC(=O)N2CCOCC2)cc1)C(=O)O)C1CCCN(C(=O)c2ccccc2F)C1 (stereo partly drawn) [Example 4.49] | ≤ 500 nM
29 | O=C(N[C@@H](Cc1ccc(NC(=O)N2CCN(c3ccccc3)CC2)cc1)C(=O)O)C1CCCN(C(=O)c2ccccc2F)C1 (stereo partly drawn) [Example 4.50] | ≤ 500 nM
30 | CN1CCN(C(=O)Nc2ccc(C[C@H](NC(=O)C3CCCN(C(=O)c4ccccc4F)C3)C(=O)O)cc2)CC1 (stereo partly drawn) [Example 4.51] | ≤ 500 nM
31 | CC(C)NC(=O)N1CCCC(C(=O)N[C@@H](Cc2ccc(NC(=O)N3CCOCC3)cc2)C(=O)O)C1 (stereo partly drawn) [Example 4.52] | ≤ 500 nM
32 | O=C(N[C@@H](Cc1ccc(NC(=O)N2CCc3ccccc3C2)cc1)C(=O)O)C1CCCN(C(=O)C2CCCCC2)C1 (stereo partly drawn) [Example 4.53] | 500 to 2000 nM
33 | COc1ccccc1NC(=O)N1CCCC(C(=O)N[C@@H](Cc2ccc(NC(=O)N3CCCCC3)cc2)C(=O)O)C1 (stereo partly drawn) [Example 4.54] | 500 to 2000 nM
34 | COc1ccccc1NC(=O)N1CCCC(C(=O)N[C@H](Cc2ccc(NC(=O)N3CCN(c4ccccc4)CC3)cc2)C(=O)O)C1 (stereo partly drawn) [Example 4.55] | 500 to 2000 nM
35 | O=C(NCC(c1ccccc1)c1ccccc1)Nc1ccc(C[C@H](NC(=O)C2CCCN(C(=O)c3ccccc3F)C2)C(=O)O)cc1 (stereo partly drawn) [Example 4.56] | 500 to 2000 nM
36 | CN1CCN(C(=O)Nc2ccc(C[C@H](NC(=O)C3CCCN(C(=O)Nc4ccccc4F)C3)C(=O)O)cc2)CC1 (stereo partly drawn) [Example 4.57] | 500 to 2000 nM
37 | O=C(N[C@@H](Cc1ccc(NC(=O)N2CCOCC2)cc1)C(=O)O)C1CCCN(C(=O)NC2CCCCC2)C1 (stereo partly drawn) [Example 4.58] | 500 to 2000 nM
38 | O=C(N[C@@H](Cc1ccc(NC(=O)N2CCOCC2)cc1)C(=O)O)C1CCCN(C(=O)Nc2ccc(-c3ccccc3)cc2)C1 (stereo partly drawn) [Example 4.59] | 500 to 2000 nM
39 | O=C(N[C@@H](Cc1ccc(NC(=O)N2CCc3ccccc3C2)cc1)C(=O)O)C1CCCN(C(=O)Nc2ccccc2)C1 (stereo partly drawn) [Example 4.60] | 500 to 2000 nM
40 | O=C(N[C@@H](Cc1ccc(NC(=O)N2CCOCC2)cc1)C(=O)O)C1CCCN(C(=O)Nc2ccccc2F)C1 (stereo partly drawn) [Example 4.61] | 500 to 2000 nM

Row | Structure (SMILES) | IC50
41 | CN1CCN(C(=O)Nc2ccc(C[C@H](NC(=O)C3CCCN(C(=O)NCc4ccccc4)C3)C(=O)O)cc2)CC1 (stereo partly drawn) [Example 4.62] | 500 to 2000 nM
42 | COc1ccccc1NC(=O)N1CCCC(C(=O)N[C@@H](Cc2ccc(NC(=O)N3CCOCC3)cc2)C(=O)O)C1 (stereo partly drawn) [Example 4.63] | 500 to 2000 nM
43 | COc1ccccc1-c1ccc(C[C@H](NC(=O)C2CCCN(c3ncnc(NC4CCN(Cc5ccccc5)CC4)c3F)C2)C(=O)O)cc1 (stereo partly drawn) [Example 5.2] | 2000 to 10000 nM
44 | COc1ccccc1-c1ccc(C[C@H](NC(=O)C2CCCN(c3ncnc(NCCc4c[nH]cn4)c3F)C2)C(=O)O)cc1 (stereo partly drawn) [Example 5.3] | 2000 to 10000 nM
45 | COc1ccccc1-c1ccc(C[C@H](NC(=O)C2CCCN(c3ncnc(N)c3F)C2)C(=O)O)cc1 (stereo partly drawn) [Example 5.4] | 500 to 2000 nM
46 | CN(C)CCNc1ncnc(N2CCCC(C(=O)N[C@H](Cc3ccc(NC(=O)N4CCN(C)CC4)cc3)C(=O)O)C2)c1F (stereo partly drawn) [Example 5.5] | 2000 to 10000 nM
47 | O=C(N[C@@H](Cc1ccc(NC(=O)N2CCN(c3ccccc3)CC2)cc1)C(=O)O)C1CCCN(c2ncnc(NCCc3c[nH]cn3)c2F)C1 (stereo partly drawn) [Example 5.6] | 2000 to 10000 nM
48 | COc1ccc(CCNc2ncnc(N3CCCC(C(=O)N[C@@H](Cc4ccc(NC(=O)N5CCN(C)CC5)cc4)C(=O)O)C3)c2F)cc1 (stereo partly drawn) [Example 5.7] | 500 to 2000 nM
49 | O=C(N[C@@H](Cc1ccc(NC(=O)N2CCOCC2)cc1)C(=O)O)C1CCCN(c2ncnc(NCc3ccccc3)c2F)C1 (stereo partly drawn) [Example 5.8] | 500 to 2000 nM
50 | O=C(N[C@@H](Cc1ccc(NC(=O)N2CCOCC2)cc1)C(=O)O)C1CCCN(c2ncnc(N3CCCC3)c2F)C1 (stereo partly drawn) [Example 5.9] | 2000 to 10000 nM
51 | O=C(N[C@@H](Cc1ccc(NC(=O)N2CCN(c3ccccc3)CC2)cc1)C(=O)O)C1CCCN(c2ncnc(N3CCCC3)c2F)C1 (stereo partly drawn) [Example 5.10] | 2000 to 10000 nM
52 | CN1CCN(C(=O)Nc2ccc(C[C@H](NC(=O)C3CCCN(c4ncnc(NCc5ccccc5)c4F)C3)C(=O)O)cc2)CC1 (stereo partly drawn) [Example 5.11] | 500 to 2000 nM
53 | O=C(N[C@@H](Cc1ccc(NC(=O)N2CCOCC2)cc1)C(=O)O)C1CCCN(c2ncnc(N3CCN(c4ccccc4)CC3)c2F)C1 (stereo partly drawn) [Example 5.12] | 2000 to 10000 nM
54 | CN1CCN(C(=O)Nc2ccc(C[C@H](NC(=O)C3CCCN(c4ncnc(N5CCCC5)c4F)C3)C(=O)O)cc2)CC1 (stereo partly drawn) [Example 5.13] | 2000 to 10000 nM
55 | CN1CCN(C(=O)Nc2ccc(C[C@H](NC(=O)C3CCCN(c4ncnc(N5CCN(c6ccccc6)CC5)c4F)C3)C(=O)O)cc2)CC1 (stereo partly drawn) [Example 5.14] | 2000 to 10000 nM
56 | CN(C)CCCNc1ncnc(N2CCCC(C(=O)N[C@@H](Cc3ccc(NC(=O)N4CCN(c5ccccc5)CC4)cc3)C(=O)O)C2)c1F (stereo partly drawn) [Example 5.15] | 2000 to 10000 nM
57 | COCCNc1ncnc(N2CCCC(C(=O)N[C@@H](Cc3ccc(NC(=O)N4CCc5ccccc5C4)cc3)C(=O)O)C2)c1F (stereo partly drawn) [Example 5.16] | 2000 to 10000 nM
58 | O=C(N[C@@H](Cc1ccc(NC(=O)N2CCN(c3ccccc3)CC2)cc1)C(=O)O)C1CCCN(c2ncnc(N3CCSCC3)c2F)C1 (stereo partly drawn) [Example 5.17] | 500 to 2000 nM
59 | CN1CCN(C(=O)Nc2ccc(C[C@H](NC(=O)C3CCCN(c4ncnc(NCC(c5ccccc5)c5ccccc5)c4F)C3)C(=O)O)cc2)CC1 (stereo partly drawn) [Example 5.18] | 500 to 2000 nM
60 | O=C(N[C@@H](Cc1ccc(NC(=O)N2CCN(c3ccccc3)CC2)cc1)C(=O)O)C1CCCN(c2ncnc(NCC(c3ccccc3)c3ccccc3)c2F)C1 (stereo partly drawn) [Example 5.19] | 500 to 2000 nM
